Data set [1] addresses Replicase polyprotein 1ab (Severe acute respiratory syndrome coronavirus 2) (UniProt P0DTD1). Description: Inhibition of recombinant SARS-CoV-2 main protease at 1 uM using Dabcyl-KTSAVLQSGFRKM{Glu(Edans)} as substrate preincubated for 10 mins followed by substrate addition and measured at 60 secs interval for 30 mins by fluorogenic assay relative to control. The following applies: time 40.0 min.

The target in data set [2] is T1, Replicase polyprotein 1ab (Severe acute respiratory syndrome coronavirus 2, UniProt P0DTD1). The experiment in a line: Inhibition of recombinant SARS-CoV-2 main protease using Dabcyl-KTSAVLQSGFRKM{Glu(Edans)} as substrate preincubated for 10 mins followed by substrate addition and measured at 60 secs interval for 30 mins by fluorogenic assay.
A further data set has as its system 16HBE14o-. Description: Cytotoxicity against human 16HBE14o- cells assessed as reduction in cell viability at 100 uM measured after 24 hrs by MTT assay. Format: toxicity, cell-based. (Formazan colour is commonly taken as a measure of viable cells.)
Data set [3] concerns the target T1, Replicase polyprotein 1ab. Description: Competitive inhibition of recombinant SARS-CoV-2 main protease using varying levels of Dabcyl-KTSAVLQSGFRKM{Glu(Edans)} as substrate by Lineweaver-Burk plot analysis.

The structures appear in SMILES notation.

The inhibition is the percentage by which the read-out fell short of the control. A word on the IC50: it is the point on the concentration scale where inhibition reaches its midpoint. A word on the Ki: it is a measure of affinity in units of concentration, obtained from inhibition or displacement. `Cc1nc(C(=O)N2CCOCC2)c(C(=O)Nc2ccc(Cl)cc2)[nH]1`: the inhibition in data set [1] came out at 38%. For the same molecule, in data set [2], the IC50 came to 4.79 µM. In addition, the Activity entry with 16HBE14o- is “Non-toxic”. Moreover, in data set [3], the Ki came to 15 µM.
On to `Cc1nc(C(=O)N2CCOCC2)c(C(=O)Nc2ccc(Cl)c(Cl)c2)[nH]1`, for which, in data set [1], the inhibition is 33%. The concentration for half-maximal inhibition (IC50) in data set [2] is 22.9 µM.
In the case of `Cc1nc(C(=O)N2CCOCC2)c(C(=O)Nc2cc(Cl)c(Cl)cc2Cl)[nH]1`, the inhibition in data set [1] came to 39%. Further, the half-maximal inhibitory concentration (IC50) in data set [2] came out at 13.3 µM. For the same molecule, the Activity entry with 16HBE14o- is listed as “Non-toxic”.
As for `CC(C)c1nc(CN(C)C(=O)N[C@H](C(=O)N[C@@H](Cc2ccccc2)C[C@H](O)[C@H](Cc2ccccc2)NC(=O)OCc2cncs2)C(C)C)cs1`, in data set [1], the inhibition came out at 24%.
Regarding `O=C(Nc1ccc(Cl)cc1)c1[nH]cnc1C(=O)N1CCOCC1`, the inhibition in data set [1] amounted to 3%.
On the same count and under the same terms, for `O=C(Nc1ccccc1)c1[nH]cnc1C(=O)N1CCOCC1` the value was 15%; for `O=C(Nc1cc(Cl)c(Cl)cc1Cl)c1[nH]cnc1C(=O)N1CCOCC1`, 16%.
As for `Cc1nc(C(=O)N2CCOCC2)c(C(=O)Nc2cc(Cl)ccc2Cl)[nH]1`, in data set [1], the inhibition turned out to be 38%. The IC50 in data set [2] came to 8.43 µM. In addition, the Activity entry in the data set with 16HBE14o- is reported as “Non-toxic”.
Turning to `O=C(Nc1cc(Cl)ccc1Cl)c1[nH]cnc1C(=O)N1CCOCC1`, the inhibition in data set [1] was found to be 18%.
As to `Cc1nc(C(=O)N2CCOCC2)c(C(=O)Nc2ccccc2)[nH]1`, in data set [1], the inhibition is 24%. Moreover, in the data set with 16HBE14o-, the Activity result is given as “Non-toxic”.
As for `Cc1cccc(C)c1OCC(=O)N[C@@H](Cc1ccccc1)[C@@H](O)C[C@H](Cc1ccccc1)NC(=O)[C@H](C(C)C)N1CCCNC1=O`, the inhibition in data set [1] turned out to be 33%.
For the molecule `O=C(Nc1ccc(Cl)c(Cl)c1)c1[nH]cnc1C(=O)N1CCOCC1`, the inhibition in data set [1] was determined as 33%. Also, the IC50 in data set [2] turned out to be 44.6 µM. The Activity result in the data set with 16HBE14o- is “Non-toxic”.
`O=c1c2ccccc2[se]n1-c1ccccc1`: in data set [1], the inhibition worked out at 100%.

The record behind these values is ChEMBL document CHEMBL6134789, “Asymmetric imidazole-4,5-dicarboxamide derivatives as SARS-CoV-2 main protease inhibitors: design, synthesis and biological evaluation” (RSC Med Chem, 2024).
